Drawing on a melting point compilation (Tetko et al.; mined from patent text by program, amines drawn as free bases though some values may be those of a salt), this text covers melting point for 86 compounds.

Some results are limits rather than exact numbers.

The compound `COCCOc1ccc(CCCOC(=O)N2CCOCC2)c(Oc2ncc(C(F)(F)F)cc2Cl)c1` registered a melting point of 82.3 to 82.4 °C.

`Cn1c(CC(=O)O)cc2ccc3ccsc3c(=O)c21`: the melting point lay in the range of 185 to 188 °C.

`CC(O)c1cc(C#C[Si](C)(C)C)c(O)c(Cl)n1` (stereo unspecified) showed a melting point of 97 to 98 °C.

`Cc1cc(N2CCN(c3c(C)c(C)c4c(c3C)CC(C)(C)O4)CC2)ccc1Cl` had a melting point of 168 to 171 °C.

As for `CC(C)(C)NC(=O)N1CCN(Cc2ccccc2)C[C@@H]1C(=O)NCCc1cncn1Cc1ccc(C#N)cc1`, the melting point is 97.8 °C.

`Oc1cc2cc3c(ccc4cc(O)c(O)cc43)nc2cc1O`: the melting point was over 270 °C.

Regarding `OCC12CN3CN(C(c4ccccc4)N(C1)C3c1ccccc1)C2c1ccccc1` (stereo unspecified), the melting point is 91 to 93 °C.

`Cc1cc(C)cc(NC(=O)NCc2ccc3c(c2)CN(C2CCC(=O)NC2=O)C3=O)c1` (stereo unspecified) had a melting point of 289 to 291 °C.

As for `COc1cccc(CNc2ncnc3c2sc2nc(N4CCSCC4)c4c(c23)CC(C)(C)CC4)c1OC`, the melting point lay in the range of 112 to 114 °C.

The compound `Cc1cc(C(=O)O)n(-c2ccc(C=Cc3ccccc3)c(C#N)c2)n1` returned a melting point of 226 °C.

Take `CCOP(=O)(CCN1CCC(N(C)S(=O)(=O)c2ccc(Nc3nccc(Nc4ccc(F)cc4)n3)cc2)CC1)OCC`: the melting point is 95 to 100 °C.

Turning to `COC12CC(c3nnc(-c4cncc(Br)c4)o3)CN(C)C1Cc1c[nH]c3cccc2c13` (stereo unspecified), the melting point lay within 155 to 157 °C.

`N#CN1CCC2(CC1)Oc1ccccc1C2n1cccc1` (stereo unspecified) came in with a melting point of 165 to 168 °C.

For the compound `CC1=C(Cn2ccnc2)CCc2ccc(C(=O)O)cc21`, the melting point lay within 278 to 280 °C.

`Cc1ccc2oc(C(O)[C@H](C)NC(=O)OCc3ccccc3)nc2c1` (stereo partly specified): the melting point fell in the range of 134 to 135 °C.

The compound `CC(C)Cn1c(CN)c(-c2ccccc2)c2cc(SCC(N)=O)ccc2c1=O` returned a melting point of 218 to 220 °C.

`N#CN1CCNC(c2ccccc2)c2ccccc2C1` (stereo unspecified) displayed a melting point of 134 to 135 °C.

As to `O=Cc1c(-c2ccc(Cl)cc2)nsc1-c1ccccc1`, the melting point fell in the range of 148 to 149 °C.

`COC(=O)c1ccccc1OCNC(=O)CCCCCNC(=O)OC(C)(C)C` showed a melting point of 120 to 121 °C.

For the compound `CC(c1oc2ccccc2c(=O)c1-c1cccc(F)c1)n1nc(-c2ccc(S(C)(=O)=O)cc2)c2c(N)ncnc21` (stereo unspecified), the melting point was in the range of 259 to 262 °C.

`O=C1CCC(N2C(=O)c3cccc(OCc4ccc(CN5CCN(S(=O)(=O)C(F)(F)F)CC5)cc4)c3C2=O)C(=O)N1` (stereo unspecified) gave a melting point of 229 to 231 °C.

Compound `Clc1c2ccccc2nc2cc(-c3ccccc3)ccc12` returned a melting point of 104 to 108 °C.

`CC(C)(C)[Si](C)(C)Oc1cc(Br)c2oc(-c3ccc(O[Si](C)(C)C(C)(C)C)c(F)c3)nc2c1` had a melting point of 98 to 99 °C.

`COc1cc(Nc2nccc(-c3ccc(N4CCN(CCO)CC4)nc3)n2)cc(OC)c1OC` returned a melting point of 156 to 157 °C.

As for `Cc1cc(C=NNC(N)=S)ncc1[N+](=O)[O-]`, the melting point was in the range of 220 to 222 °C.

`O=S(=O)(Oc1ccc(F)cc1)c1ccc(Oc2ccc(F)cc2)cc1` registered a melting point of 78 to 83 °C.

`CCOC(=O)c1ccc(-c2nc3ccc(C)cn3c2CO)cc1` registered a melting point of 157 to 159 °C.

Compound `CCCc1c(OCCCOc2cccc3c2CCCC3)ccc2c1OC(CCCO)(CCCO)CC2O` (stereo unspecified) registered a melting point of 123 to 124 °C.

`O=C(O)c1cc2cc(O)c(O)cc2nc1C(=O)O` came in with a melting point of over 300 °C.

For the compound `O=C(C=P(c1ccccc1)(c1ccccc1)c1ccccc1)COc1ccccc1Cl`, the melting point is 107 to 109 °C.

In the case of `Nc1nc(N)nc(-c2cncc(Br)c2)n1`, the melting point was over 260 °C.

`O=C(NCc1ccc2ccn(C3CCN(CCc4ccc(F)cc4)CC3)c2c1)C1CC1` showed a melting point of 116 to 117 °C.

Take `NC(Cc1c(Cl)cccc1Cl)=NO`: the melting point lay within 172 to 173 °C.

Turning to `COC(=O)C1(S(C)(=O)=O)C(C)NC(C)=CC1c1ccccc1S(=O)(=O)NN(C)C` (stereo unspecified), the melting point is 218 to 221 °C.

`CCCCCn1ncc2c(N)c3c(nc21)CN(Cc1cccc(C(F)(F)F)c1)C3=O` displayed a melting point of 146 to 148 °C.

In the case of `CC(=O)C1CCC2C3CCC4CC5OC5CC4(C)C3C(OC(=O)CCl)CC12C` (stereo unspecified), the melting point was 163 to 169 °C.

`O=C(NS(=O)(=O)C=Cc1ccccc1)N1CCCC1` had a melting point of 201 to 204 °C.

`N#Cc1cccc(-c2cc(-c3ccc(C#N)cc3O[N+](=O)[O-])on2)c1` returned a melting point of 198 to 199 °C.

Compound `CC(=O)N(C(=O)N(C)C)c1nnc(C(F)(F)F)s1` yielded a melting point of 61 to 63 °C.

`O=C(O)[C@H]1Cc2ccccc2CN1S(=O)(=O)c1ccc([N+](=O)[O-])cc1` had a melting point of 140 °C.

The compound `COC(=O)c1ccc(CC23CCCCN2C(=O)N(c2cc(Cl)cc(Cl)c2)C3=O)cc1` (stereo unspecified) displayed a melting point of 51 °C.

`CSc1nccc(Oc2ccc(NC(=O)c3cc(F)cc(N4CCCC4)c3)c3ccccc23)n1` had a melting point of 180 to 181 °C.

As for `C[C@@H]1N=C(c2ccccc2Cl)c2ccsc2NC1=O`, the melting point is 200 °C.

`CC1(C)SC(c2cc(Br)c(O)c(Br)c2)NC1C(=O)O` (stereo unspecified) yielded a melting point of 154 to 155 °C.

Compound `COC1=CC(=O)NCC1` had a melting point of 115 to 117 °C.

In turn, `CC1(C)OCCn2c1nc(C(=O)NCc1ccc(F)cc1P(=O)(O)OCc1ccccc1)c(OCc1ccccc1)c2=O` returned a melting point of 142 °C.

In turn, `COC(=O)c1ccc(C(O)c2cc3cc(C(F)(F)F)ccc3n2S(=O)(=O)c2cccc(C(C)(C)C)c2)cc1` (racemic) gave a melting point of 60 °C.

The compound `O=C(Cc1ccccc1Br)NC1CCC1` yielded a melting point of 159 to 161 °C.

For `Cc1ccc([N+](=O)[O-])cc1S(=O)(=O)n1nnc2ccccc21`, the melting point is 169 to 170 °C.

`O=C(O)CCc1ccc(C(=O)CCl)cc1` returned a melting point of 151 to 153 °C.

Regarding `c1ccc2nc(CN(CCN(Cc3ccc4ccccc4n3)Cc3ccc4ccccc4n3)Cc3ccc4ccccc4n3)ccc2c1`, the melting point is 196 to 198 °C.

Compound `Cn1c(=O)oc2c3ncccc3c(Cl)cc21` came in with a melting point of 219 to 221 °C.

As to `CNC(=O)Oc1ccc2[nH]cc(CCCN3CCN(c4ncncc4OC)CC3)c2c1`, the melting point is 120 to 122 °C.

On to `CC(C)c1ccc(C(=O)Cc2ccccc2C(F)(F)F)c(C(C)C)c1OS(N)(=O)=O`, for which the melting point lay in the range of 144 to 149 °C.

Compound `COC(=O)Nc1ccc(C(=O)OC)nc1` displayed a melting point of 211 to 213 °C.

`CC(C)CC[C@H](O)[C@H](CC1CCCCC1)NC(=O)[C@@H](N)Cc1c[nH]cn1` displayed a melting point of 126 to 130 °C.

Compound `CCN(c1nc(C)cc(C(=O)N2CCN(C)CC2)n1)c1ccc(C(C)C)cc1Br` displayed a melting point of 81 to 82 °C.

As for `N#Cc1ccc(N2CCC(CC(=O)O)CC2)c2ccccc12`, the melting point is 195 to 196 °C.

Take `CC(CCc1cc2cccnc2n(-c2cccc([N+](=O)[O-])c2)c1=O)c1ccncc1` (stereo unspecified): the melting point lay in the range of 154 to 155 °C.

With `CN(C)CCNC(=O)c1ccc2c(c1)CN(C(=O)CCCCCN1CCN(c3cccc(C(F)(F)F)c3)CC1)C2`, the melting point was determined as 120 °C.

Regarding `CN(CN1C(=O)c2ccccc2C1=O)c1c(S(=O)C(F)(F)F)c(C#N)nn1-c1c(Cl)cc(C(F)(F)F)cc1Cl` (stereo unspecified), the melting point stood at 163 °C.

`N#Cc1sc(N)c(C#N)c1Cl` registered a melting point of 259 °C.

Take `COC(=O)c1cccc(Cn2nc(C(N)=O)c3ccccc32)c1`: the melting point is 166 to 168 °C.

Consider `O=C(O)Cn1ccn(C2CCc3ccccc3C2)c1=S` (stereo unspecified), for which the melting point was 228 to 230 °C.

On to `O=C(O)c1cnc(NC(=O)C(CC2CCCC2)c2ccc(Cl)c(Cl)c2)s1` (stereo unspecified), for which the melting point fell in the range of 269 to 270 °C.

On to `Cc1cc2c(-c3cccc(C(F)(F)F)c3)nc(COCC(F)(F)F)nc2s1`, for which the melting point lay within 40 to 41 °C.

`CCOC(=O)C1=C(C)NC(C)=C(C(=O)OC(C)C)C1c1ccccc1C#N` (stereo unspecified) gave a melting point of 152 °C.

`COc1cc(C(=O)NCC2c3ccccc3CC(C)N2C(=O)c2ccccc2)cc(OC)c1OC` (stereo unspecified) yielded a melting point of 160 to 162 °C.

Compound `N#Cc1c2cccccc-2nc1NCCC(c1ccccc1)c1ccccc1` displayed a melting point of 178 to 180 °C.

`COc1ccc(C#N)nc1C` had a melting point of 114 to 116 °C.

In turn, `CCc1cn(C2OC(CN)C(O)C2F)c(=O)[nH]c1=O` (stereo unspecified) showed a melting point of 194 to 214 °C.

In the case of `COc1ccc(CNS(C)(=O)=O)cc1OC`, the melting point lay within 78 to 81 °C.

The compound `CCOCOC(=O)Cc1c(C)n(C(=O)c2ccc(Cl)cc2)c2ccc(OC)cc12` yielded a melting point of 60 to 61 °C.

Regarding `CCNC(=O)N1CCc2cc(S(=O)(=O)N3CC(c4ccccc4)NC3=O)ccc21` (stereo unspecified), the melting point was determined as 127 °C.

With `CCOC(=O)CCc1c(O)ccc2c(=O)c3cc(C(=O)OC)ccc3oc12`, the melting point is over 215 °C.

Consider `CCc1nn(C(C)C)c2cc(C(=O)O)ccc12`, for which the melting point lay in the range of 160 to 163 °C.

In turn, `Cc1nnc(-c2ccc3occ(-c4ccc5c(c4)C(C)(C)CS5)c3c2)o1` returned a melting point of 159 to 160 °C.

`CCOC(=O)c1c(C)cc2c(c1C)c(=O)n(-c1ccccc1Cl)c(=O)n2CCCN(C)Cc1ccccc1` displayed a melting point of 145 to 146 °C.

Consider `CN(O)C(=O)C(=Cc1ccc2ccccc2c1)c1ccc(Br)cc1`, for which the melting point is 118 to 120 °C.

`COc1ccc(NC(=O)CN2CCC(Cc3ccccc3)CC2)cc1`: the melting point is 81 to 83 °C.

On to `CC12CCC(C1)C1(C)Oc3ccc(CCOc4ccc(C(=O)O)c(O)c4)cc3C21C` (stereo unspecified), for which the melting point was 212 to 214 °C.

Turning to `O=C1c2ccc(Sc3ccc4c(c3)C(=O)N(c3ccccc3)C4=O)cc2C(=O)N1c1ccccc1`, the melting point lay in the range of 275 to 280 °C.

As for `CCOC(=O)c1cnc2[nH]ncc2c1OCC`, the melting point was 180 °C.

On to `CCCC(=O)c1cnc2c(OCC)nccc2c1OS(C)(=O)=O`, for which the melting point lay within 115 to 116 °C.

Consider `O=c1oc2cccnc2n1CCCN1CCN(c2cccc(C(F)(F)F)c2)CC1`, for which the melting point lay in the range of 62 to 63 °C.

`OCC(CO)OCn1c(Cl)nc2c(Cl)c(Cl)c(Cl)c(Cl)c21` yielded a melting point of 155 °C.
